pIC50: −log10 of the molar value. Each block holds one molecule with its values, some of them ahead of it.
Test system: 966289-007-R4-J1-PDC complex spheroid viability
Assay: Anticancer human tumor 966289-007-R4-J1-PDC patient-derived pancreatic adenocarcinoma cell line growth inhibition [RAS]
Conditions: for viability, T/C: stronger effect = lower value
Text: RAS pathway inhibitors in Combinations in Complex Spheroids
A high-throughput screen of multi-cell type tumor spheroids was designed to identify active combinations of RAS pathway inhibitors and targeted small molecules. Complex spheroids include a stromal component modeled by human endothelial cells (HUVEC) and fibroblasts modeled by human mesenchymal stem cells (MSCs). The concentration ranges selected for each drug and investigational agent were based upon clinically achievable concentrations if the clinical Cmax of the agent was known.
Compounds. The drugs and investigational agents: abemaciclib (NSC768073), cobimetinib (NSC768068), divarasib (GDC6063, NSC841802), docetaxel (NSC628503), GDC-1971 (RLY-1971, NSC841576), gemcitabine (NSC613327), inavolisib (NSC800729), ipatasertib (NSC767898), KB-0742 (NSC834161), MRTX-1133 (NSC836407), osimertinib (NSC779217), RMC-4630 (NSC839698), RMC-6236 (NSC851965), RMC-6291 (NSC852671), Ro-3306 (NSC812927), sapanisertib (NSC764658), SN-38 (NSC673596), staurosporine (NSC755774), SY5609 (NSC837396), and tovorafenib (DAY101, NSC766906), were obtained from the National Cancer Institute (NCI) Developmental Therapeutics Program Chemical Repository. The FDA-approved anticancer drug set is available from the NCI Developmental Therapeutics Program. […] The stock solutions were prepared in dimethyl sulfoxide (DMSO, Sigma-Aldrich, St. Louis, MO, cat. D2650) at 800-fold the tested concentration and stored at -70 degrees C prior to their use. All drugs and investigational agents were tested over a range starting from a high concentration at or near the clinical Cmax and decreasing in half-log increments. If the clinical Cmax for an agent had not been determined, the highest concentration tested was 10 microM.
Cell Culture. All cells were maintained in an incubator at 37 degrees C and 5% CO2 with 95% humidity. The PDC lines were cultured according to standard operating procedures established by the NCI PDMR. All PDCs were thawed and cultured in Matrigel-coated flasks prepared with a working solution of 1X Ham's F-12 nutrient mix, without supplementation (Invitrogen, Waltham, MA, cat. 11765054), 100 U/mL penicillin-streptomycin (Invitrogen, cat. 15140122), and 2.5% Matrigel (Corning Inc., Corning, NY, cat. 354248) for the first three passages. The 362531-283-R-J2-PDC and 782815-120-R-J1-PDC lines were cultured in 6C/Colon 1B media, which includes advanced DMEM/F-12 (Thermo Fisher Scientific, cat. 12634028), 10 mM HEPES (Thermo Fisher Scientific, cat. 15630080), 1X GlutaMAX supplement (Thermo Fisher Scientific, cat. 35050061), 0.1 mg/mL primocin (InvivoGen, San Diego, CA, cat. ant-pm-2), 10% defined fetal bovine serum, heat inactivated (HyClone Laboratories Inc., Logan, UT, cat. SH30070.03HI), 50% L-WRN conditioned media (ATCC, cat. CRL-3276), 1.25 mM N-Acetyl-L-cysteine (Sigma-Aldrich, cat. A9165), 10 mM nicotinamide (Sigma-Aldrich, cat. N0636), 1X B-27 supplement (Thermo Fisher Scientific, cat. 17504044), 1X N-2 supplement (Thermo Fisher Scientific, cat. 17502048), 50 ng/mL human EGF (Thermo Fisher Scientific, cat. PHG0311), and 10 microM Y-27632 dihydrochloride (Tocris Bioscience, cat. 1254). The K12877-001-R-J1-PDC line was cultured in 6I media, which includes all 6C/Colon 1B media plus 10 ng/mL human FGF-10 (PeproTech, cat. 100-26), 1 ng/mL human FGF-2 (PeproTech, cat. 100-18B), 1 µM prostaglandin E2 (Tocris Bioscience, cat. 2296), […] hydrocortisone (Sigma-Aldrich, cat. H4001), and […] bovine insulin (Sigma-Aldrich, cat. I6634). The K86415-001-R-J1-PDC line was cultured in 6D media, which includes all 6C/Colon 1B media components minus the L-WRN conditioned media. The 485176-168-R4-J1-PDC was cultured in PANC media, which includes all 6C/Colon 1B media plus 100 ng/mL human FGF-10 (PeproTech, cat. 100-26), 500 nM SB-431542 (Selleckchem, cat. S1067), and 10 nM gastrin (Tocris Bioscience, cat. 3006). […]
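Further: spheroids exposed to agents for one week before readout.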
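Wherever viability, T/C is given: percent viability relative to DMSO vehicle control wells as 100%.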

pIC50 (curve of first compound, second compound 0.00316 µM): < 5.00
pIC50 (curve of first compound, second compound 0.01 µM): < 5.00
pIC50 (curve of first compound, second compound 0.0316 µM): < 5.00
pIC50 (curve of first compound, second compound 0.1 µM): < 5.00
pIC50 (curve of first compound, second compound 0.316 µM): < 5.00
pIC50 (curve of first compound, second compound 1 µM): < 5.00
Compound: Cc1nc(N2CCC3(CC2)COC(C)C3N)c(CO)nc1Sc1ccnc(N)c1Cl (centres undefined) + C=CC(=O)N1CCN(c2nc(OCC3CCCN3C)nc3c(F)c(-c4nc(N)cc(C)c4C(F)(F)F)c(Cl)cc23)C(C)C1
viability, T/C (second compound 0.00316 µM, first compound 0.0316 µM): 100%
viability, T/C (second compound 0.00316 µM, first compound 0.1 µM): 90.2%
viability, T/C (second compound 0.00316 µM, first compound 0.316 µM): 121%
viability, T/C (second compound 0.00316 µM, first compound 1 µM): 105%
viability, T/C (second compound 0.00316 µM, first compound 3.16 µM): 106%
viability, T/C (second compound 0.00316 µM, first compound 10 µM): 80%
viability, T/C (second compound 0.01 µM, first compound 0.0316 µM): 109%
viability, T/C (second compound 0.01 µM, first compound 0.1 µM): 89.6%
viability, T/C (second compound 0.01 µM, first compound 0.316 µM): 109%
viability, T/C (second compound 0.01 µM, first compound 1 µM): 94.6%
viability, T/C (second compound 0.01 µM, first compound 3.16 µM): 100%
viability, T/C (second compound 0.01 µM, first compound 10 µM): 98.6%
viability, T/C (second compound 0.0316 µM, first compound 0.0316 µM): 106%
viability, T/C (second compound 0.0316 µM, first compound 0.1 µM): 97.9%
viability, T/C (second compound 0.0316 µM, first compound 0.316 µM): 110%
viability, T/C (second compound 0.0316 µM, first compound 1 µM): 105%
viability, T/C (second compound 0.0316 µM, first compound 3.16 µM): 108%
viability, T/C (second compound 0.0316 µM, first compound 10 µM): 84.7%
viability, T/C (second compound 0.1 µM, first compound 0.0316 µM): 91.1%
viability, T/C (second compound 0.1 µM, first compound 0.1 µM): 107%
viability, T/C (second compound 0.1 µM, first compound 0.316 µM): 107%
viability, T/C (second compound 0.1 µM, first compound 1 µM): 99.9%
viability, T/C (second compound 0.1 µM, first compound 3.16 µM): 101%
viability, T/C (second compound 0.1 µM, first compound 10 µM): 81.6%
viability, T/C (second compound 0.316 µM, first compound 0.0316 µM): 111%
viability, T/C (second compound 0.316 µM, first compound 0.1 µM): 102%
viability, T/C (second compound 0.316 µM, first compound 0.316 µM): 123%
viability, T/C (second compound 0.316 µM, first compound 1 µM): 114%
viability, T/C (second compound 0.316 µM, first compound 3.16 µM): 97.8%
viability, T/C (second compound 0.316 µM, first compound 10 µM): 101%
viability, T/C (second compound 1 µM, first compound 0.0316 µM): 91.3%
viability, T/C (second compound 1 µM, first compound 0.1 µM): 98.1%
viability, T/C (second compound 1 µM, first compound 0.316 µM): 112%
viability, T/C (second compound 1 µM, first compound 1 µM): 107%
viability, T/C (second compound 1 µM, first compound 3.16 µM): 104%
viability, T/C (second compound 1 µM, first compound 10 µM): 97.1%

pIC50 (curve of compound): < 6.00
Compound: C=CC(=O)Nc1cc(Nc2nccc(-c3cn(C)c4ccccc34)n2)c(OC)cc1N(C)CCN(C)C
viability, T/C (compound 0.0316 µM): 100% [middle of 4 runs]
